In patent publication US20230139171A1 (SITA Information Networking Computing UK Limited, priority 2019, published 2023) one finds IC50 data, which are given here for nine molecules.

What all share (type): cell-based
One experiment addresses T1, human TLR9 (Homo sapiens, UniProt Q9NR96).
T1 construct: host or cells: HEK-Blue cells
T1 sequence (Q9NR96 26-1032): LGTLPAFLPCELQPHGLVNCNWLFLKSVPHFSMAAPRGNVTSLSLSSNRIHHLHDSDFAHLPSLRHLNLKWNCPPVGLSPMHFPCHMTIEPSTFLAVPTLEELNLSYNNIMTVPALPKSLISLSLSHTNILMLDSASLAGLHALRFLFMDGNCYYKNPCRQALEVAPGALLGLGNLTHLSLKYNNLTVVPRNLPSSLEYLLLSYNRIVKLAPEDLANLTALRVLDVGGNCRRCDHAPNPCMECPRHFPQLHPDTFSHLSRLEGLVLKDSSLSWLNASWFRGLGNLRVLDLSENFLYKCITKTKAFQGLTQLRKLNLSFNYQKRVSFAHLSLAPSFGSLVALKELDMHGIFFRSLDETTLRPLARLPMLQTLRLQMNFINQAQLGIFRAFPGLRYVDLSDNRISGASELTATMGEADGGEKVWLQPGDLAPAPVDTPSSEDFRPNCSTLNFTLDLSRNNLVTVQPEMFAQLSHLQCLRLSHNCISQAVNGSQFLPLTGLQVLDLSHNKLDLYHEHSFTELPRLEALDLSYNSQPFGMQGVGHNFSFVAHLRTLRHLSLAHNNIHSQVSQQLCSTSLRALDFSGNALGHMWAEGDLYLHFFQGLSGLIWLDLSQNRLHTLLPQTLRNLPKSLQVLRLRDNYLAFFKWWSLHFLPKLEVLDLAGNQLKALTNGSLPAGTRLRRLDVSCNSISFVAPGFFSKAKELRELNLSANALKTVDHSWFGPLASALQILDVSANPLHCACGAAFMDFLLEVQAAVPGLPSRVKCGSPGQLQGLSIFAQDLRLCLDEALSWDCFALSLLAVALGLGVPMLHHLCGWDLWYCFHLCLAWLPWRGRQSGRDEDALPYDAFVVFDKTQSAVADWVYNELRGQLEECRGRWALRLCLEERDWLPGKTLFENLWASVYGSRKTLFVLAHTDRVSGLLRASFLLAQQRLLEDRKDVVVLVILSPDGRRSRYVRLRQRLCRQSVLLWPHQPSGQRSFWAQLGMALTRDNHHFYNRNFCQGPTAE
As to the kind of experiment: TLR9 inhibition reporter assay (HEK-Blue cells, SEAP reporter, ODN2006 stimulation). The following applies: HEK-Blue cells overexpressing human TLR9, SEAP reporter, ODN2006 5 nM. How it is done:
TLR7/8/9 Inhibition Reporter Assays
HEK-Blue™-cells (Invivogen) overexpressing human TLR7, TLR8 or TLR9 receptors were used for screening inhibitors of these receptors using an inducible SEAP (secreted embryonic alkaline phosphatase) reporter gene under the control of the IFN-β minimal promoter fused to five NF-κB and AP-1-binding sites. Briefly, cells are seeded into Greiner 384 well plates (15000 cells per well for TLR7, 20,000 for TLR8 and 25,000 for TLR9) and then treated with test compounds in DMSO to yield a final dose response concentration range of 0.05 nM-50 μM. After a 30 minute compound pre-treatment at room temperature, the cells are then stimulated with a TLR7 ligand (gardiquimod at a final concentration of 7.5 μM), TLR8 ligand (R848 at a final concentration of 15.9 μM) or TLR9 ligand (ODN2006 at a final concentration of 5 nM) to activate NF-κB and AP-1 which induce the production of SEAP. After a 22 hour incubation at 37° C., 5% CO2, SEAP levels are determined with the addition of HEK-Blue™ Detection reagent (Invivogen), a cell culture medium that allows for detection of SEAP, according to manufacturer's specifications. The percent inhibition is determined as the % reduction in the HEK-Blue signal present in wells treated with agonist plus DMSO alone compared to wells treated with a known inhibitor.

The target in another experiment is T2, human TLR7 (Homo sapiens, UniProt Q9NYK1).
T2 construct: host or cells: HEK-Blue cells
T2 sequence (Q9NYK1 27-1049): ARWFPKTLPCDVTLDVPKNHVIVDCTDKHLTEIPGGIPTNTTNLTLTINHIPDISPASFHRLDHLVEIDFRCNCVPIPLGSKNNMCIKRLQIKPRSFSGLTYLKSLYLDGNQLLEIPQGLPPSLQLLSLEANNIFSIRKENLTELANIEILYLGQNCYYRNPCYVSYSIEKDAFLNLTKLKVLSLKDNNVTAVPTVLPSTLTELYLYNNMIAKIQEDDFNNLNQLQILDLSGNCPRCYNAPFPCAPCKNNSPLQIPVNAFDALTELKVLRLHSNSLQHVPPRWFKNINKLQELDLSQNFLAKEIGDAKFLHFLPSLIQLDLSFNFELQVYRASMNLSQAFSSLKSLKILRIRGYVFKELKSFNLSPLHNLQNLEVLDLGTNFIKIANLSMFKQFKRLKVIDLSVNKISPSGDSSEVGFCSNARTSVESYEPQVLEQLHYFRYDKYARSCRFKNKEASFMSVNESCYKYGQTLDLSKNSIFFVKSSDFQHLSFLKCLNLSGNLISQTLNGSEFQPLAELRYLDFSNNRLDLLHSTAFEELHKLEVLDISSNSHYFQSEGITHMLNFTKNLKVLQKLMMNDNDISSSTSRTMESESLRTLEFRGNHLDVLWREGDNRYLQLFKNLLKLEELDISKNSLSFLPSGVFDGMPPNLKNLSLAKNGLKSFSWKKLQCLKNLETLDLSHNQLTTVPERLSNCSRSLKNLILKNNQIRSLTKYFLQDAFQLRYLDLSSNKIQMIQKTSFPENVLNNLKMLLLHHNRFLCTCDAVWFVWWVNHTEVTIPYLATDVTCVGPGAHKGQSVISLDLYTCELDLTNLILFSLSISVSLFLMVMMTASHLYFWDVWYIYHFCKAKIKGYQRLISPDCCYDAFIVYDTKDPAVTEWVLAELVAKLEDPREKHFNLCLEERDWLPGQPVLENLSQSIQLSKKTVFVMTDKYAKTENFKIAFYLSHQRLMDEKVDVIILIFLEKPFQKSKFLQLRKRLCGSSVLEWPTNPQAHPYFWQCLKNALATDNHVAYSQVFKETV
As to the kind of experiment: TLR7 inhibition reporter assay (HEK-Blue cells, SEAP reporter, gardiquimod stimulation). The settings on record: HEK-Blue cells overexpressing human TLR7, SEAP reporter, gardiquimod 7.5 μM; read-out: TLR7 IC50. The essentials: (§1)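 Human TLR7/8/9 HEK-Blue reporter lines; dose range 0.05 nM–50 μM; 30 min RT preincubation; stimulus gardiquimod 7.5 μM / R848 15.9 μM / ODN2006 5 nM respectively; 22 h, 37 °C; SEAP detected colorimetrically.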
In general terms: A reporter such as luciferase makes a cellular process visible.

A further experiment has as its target T3, human TLR8 (Homo sapiens, UniProt Q9NR97).
T3 construct: host or cells: HEK-Blue cells
T3 sequence (Q9NR97 27-1041): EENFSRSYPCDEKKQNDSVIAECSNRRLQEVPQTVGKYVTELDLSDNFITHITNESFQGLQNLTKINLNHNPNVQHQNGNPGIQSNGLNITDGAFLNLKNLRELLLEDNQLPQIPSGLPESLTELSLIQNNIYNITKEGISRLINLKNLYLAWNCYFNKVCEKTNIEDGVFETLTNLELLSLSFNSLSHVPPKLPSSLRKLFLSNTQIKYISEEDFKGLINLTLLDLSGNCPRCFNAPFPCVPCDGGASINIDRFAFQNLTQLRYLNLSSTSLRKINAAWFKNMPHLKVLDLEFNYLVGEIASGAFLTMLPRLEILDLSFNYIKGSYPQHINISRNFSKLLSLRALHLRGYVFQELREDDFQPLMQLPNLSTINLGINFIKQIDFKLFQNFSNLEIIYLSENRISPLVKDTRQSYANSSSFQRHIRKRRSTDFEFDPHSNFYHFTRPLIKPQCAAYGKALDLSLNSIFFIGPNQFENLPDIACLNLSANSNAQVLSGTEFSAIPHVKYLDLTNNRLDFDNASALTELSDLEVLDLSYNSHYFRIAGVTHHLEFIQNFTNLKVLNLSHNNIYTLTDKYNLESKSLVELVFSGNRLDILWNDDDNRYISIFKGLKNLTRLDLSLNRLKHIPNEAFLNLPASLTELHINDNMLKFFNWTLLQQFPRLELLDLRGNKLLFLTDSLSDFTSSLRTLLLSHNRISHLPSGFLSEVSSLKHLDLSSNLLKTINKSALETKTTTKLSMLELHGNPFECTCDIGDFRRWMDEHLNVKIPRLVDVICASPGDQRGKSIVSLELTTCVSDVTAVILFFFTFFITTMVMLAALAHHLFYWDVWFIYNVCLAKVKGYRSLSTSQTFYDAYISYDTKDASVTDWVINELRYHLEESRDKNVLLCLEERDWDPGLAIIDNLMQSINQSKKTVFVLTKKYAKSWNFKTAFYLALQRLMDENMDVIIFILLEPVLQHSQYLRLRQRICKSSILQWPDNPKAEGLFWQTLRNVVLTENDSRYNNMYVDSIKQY
As to the kind of experiment: TLR8 inhibition reporter assay (HEK-Blue cells, SEAP reporter, R848 stimulation). The following applies: HEK-Blue cells overexpressing human TLR8, SEAP reporter, R848 15.9 μM; read-out: TLR8 IC50. The essentials:
as §1

pIC50: −log10 of the molar value. Some results are limits rather than exact numbers.

As to `CCN(C)C1CCC(c2nc3c(C(C)C)c(-c4cn(C)c5ncccc45)[nH]c3s2)CC1` (single isomer, unassigned) [Example 175, N-ethyl-4-(6-isopropyl-5-(1-methyl-1H-pyrrolo[2,3-b]pyridin-3-yl)-4H-pyrrolo[3,2-d]thiazol-2-yl)-N-methylcyclohexan-1-amine], the results for the pIC50 against human TLR9, on human TLR7 and on human TLR8 were 5.20, 8.42 and 8.21, respectively.
With `Cc1c(-c2[nH]c3sc(C4CCC(NCC(C)(C)O)CC4)nc3c2C(C)C)cn2ncnc2c1C` (single isomer, unassigned) [Example 196, 1-((4-(5-(7,8-dimethyl-[1,2,4]triazolo[1,5-a]pyridin-6-yl)-6-isopropyl-4H-pyrrolo[3,2-d]thiazol-2-yl)cyclohexyl)amino)-2-methylpropan-2-ol], the pIC50 (in general, the negative decadic logarithm of the IC50, by convention in mol/L) on human TLR9 was 4.89; on human TLR7, 8.95; at human TLR8 it was 9.77.
On the same counts, the results for `COc1cc(-c2[nH]c3sc(C4CCC(N5CCCOCC5)CC4)nc3c2C(C)C)cn2ncnc12` (single isomer, unassigned) [Example 102, 4-(4-(6-isopropyl-5-(8-methoxy-[1,2,4]triazolo[1,5-a]pyridin-6-yl)-4H-pyrrolo[3,2-d]thiazol-2-yl)cyclohexyl)-1,4-oxazepane] are 5.41, 9.43 and 7.85.
For the molecule `Cc1c(-c2[nH]c3sc(CNC4CCN(C(C)C)CC4)nc3c2C(C)C)cn2ncnc2c1C` [Example 401, N-((5-(7,8-dimethyl-[1,2,4]triazolo[1,5-a]pyridin-6-yl)-6-isopropyl-4H-pyrrolo[3,2-d]thiazol-2-yl)methyl)-1-isopropylpiperidin-4-amine], the pIC50 is 4.87 against human TLR9, 7.43 on human TLR7 and 7.45 at human TLR8.
On the same counts, the results for `Cc1c(-c2[nH]c3sc(C4CCC(N5CCC5)CC4)nc3c2C(C)C)cn2ncnc2c1C` (single isomer, unassigned) [Example 217, 2-(4-(azetidin-1-yl)cyclohexyl)-5-(7,8-dimethyl-[1,2,4]triazolo[1,5-a]pyridin-6-yl)-6-isopropyl-4H-pyrrolo[3,2-d]thiazole] are 5.23, 8.62 and 8.28.
On the same counts, the results for `CCN(C)C1CCC(c2nc3c(C(C)C)c(-c4cn(C)c(=O)c(C)c4C)[nH]c3s2)CC1` (single isomer, unassigned) [Example 248, 5-(2-(4-(ethyl(methyl)amino)cyclohexyl)-6-isopropyl-4H-pyrrolo[3,2-d]thiazol-5-yl)-1,3,4-trimethylpyridin-2(1H)-one] are 4.85, 8.08 and 7.92.
On the same counts, the results for `Cc1c(-c2[nH]c3sc(N4CCN(CC5(C)COC5)CC4)nc3c2C(C)C)cn2ncnc2c1C` [Example 289, 5-(7,8-dimethyl-[1,2,4]triazolo[1,5-a]pyridin-6-yl)-6-isopropyl-2-(4-((3-methyloxetan-3-yl)methyl)piperazin-1-yl)-4H-pyrrolo[3,2-d]thiazole] are 4.71, 8.28 and 9.01.
Consider `Cc1cc(-c2[nH]c3sc(C4CCC(N5CC6(COC6)C5)CC4)nc3c2C(C)C)cn2ncnc12` (single isomer, unassigned) [Example 136, 6-(4-(6-isopropyl-5-(8-methyl-[1,2,4]triazolo[1,5-a]pyridin-6-yl)-4H-pyrrolo[3,2-d]thiazol-2-yl)cyclohexyl)-2-oxa-6-azaspiro[3.3]heptane], for which the pIC50 is 4.37 at human TLR9, 8.77 on human TLR7 and 8.36 on human TLR8.
Consider `Cc1c(-c2[nH]c3sc(C4CCC(N5CC6(COC6)C5)CC4)nc3c2C(C)C)cn(C)c(=O)c1C` (single isomer, unassigned) [Example 246, 5-(2-(4-(2-oxa-6-azaspiro[3.3]heptan-6-yl)cyclohexyl)-6-isopropyl-4H-pyrrolo[3,2-d]thiazol-5-yl)-1,3,4-trimethylpyridin-2(1H)-one], for which the pIC50 was less than 4.30 against human TLR9, 7.22 at human TLR7 and 6.81 on human TLR8.
